The values below come from patent US7652005B2, “Tricyclic δ-opioid modulators” (Janssen Pharmaceutica N.V., priority 2004, dated 2010).

Usually Ki stands for the dissociation constant of the complex between target and ligand, obtained from inhibition or displacement.

In one assay the target is T1, delta opioid receptor (Rattus norvegicus, UniProt P33533).
T1 construct: from tissue; host or cells: rat forebrain homogenate (male Wistar rats), particulate membrane preparation
The assay is described as follows: Rat Brain Delta Opioid Receptor Binding Assay. To be noted: rat forebrain membrane preparation; [3H]DPDPE or [3H]naltrindole, 25° C., 2.5 h.

The next assay has as its target T2, mu opioid receptor (Rattus norvegicus, UniProt P33535).
T2 construct: Following incubation with the mu selective peptide ligand, ˜0.8 nM [^3H]DAMGO; from tissue; host or cells: rat forebrain homogenate (male Wistar rats), particulate membrane preparation
The assay is described as follows: Rat Brain Mu Opioid Receptor Binding Assay. The settings on record: rat forebrain membrane preparation; [3H]DAMGO, 25° C., 2.5 h.

Molecules are shown by their SMILES. Some results are limits rather than exact numbers.

T2 sequence (P33535 whole entry): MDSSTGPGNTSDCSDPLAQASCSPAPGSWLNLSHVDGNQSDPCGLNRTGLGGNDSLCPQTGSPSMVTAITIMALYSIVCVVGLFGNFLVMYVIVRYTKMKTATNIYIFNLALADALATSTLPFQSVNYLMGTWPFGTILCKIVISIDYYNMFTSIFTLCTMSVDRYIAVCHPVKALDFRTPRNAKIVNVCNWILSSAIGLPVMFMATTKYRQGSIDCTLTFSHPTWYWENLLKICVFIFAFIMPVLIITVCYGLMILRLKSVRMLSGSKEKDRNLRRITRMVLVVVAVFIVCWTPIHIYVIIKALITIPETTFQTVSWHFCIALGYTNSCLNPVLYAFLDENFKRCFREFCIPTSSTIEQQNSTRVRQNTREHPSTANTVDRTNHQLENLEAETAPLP
T1 sequence (P33533 whole entry): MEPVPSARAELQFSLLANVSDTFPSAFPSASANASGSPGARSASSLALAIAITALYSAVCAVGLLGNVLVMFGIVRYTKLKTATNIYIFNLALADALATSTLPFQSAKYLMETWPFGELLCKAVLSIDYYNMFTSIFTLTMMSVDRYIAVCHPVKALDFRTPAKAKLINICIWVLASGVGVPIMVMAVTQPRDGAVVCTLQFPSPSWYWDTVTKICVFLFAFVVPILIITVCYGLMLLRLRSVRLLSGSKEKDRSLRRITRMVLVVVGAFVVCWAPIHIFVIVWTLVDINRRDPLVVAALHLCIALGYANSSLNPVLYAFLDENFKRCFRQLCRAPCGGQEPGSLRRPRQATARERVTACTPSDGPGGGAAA

On to `N#Cc1ccc2c(c1)Sc1ccccc1N2C1C[C@H]2CC[C@@H](C1)N2` (mixture of isomers) [Compound 1aa, 10-(8-Aza-bicyclo[3.2.1]oct-3-yl)-10H-phenothiazine-3-carbonitrile], for which the Ki on delta opioid receptor was determined as 931 nM.

`Brc1ccc2c(c1)Sc1ccccc1N2C1C[C@H]2CC[C@@H](C1)N2` (mixture of isomers) [Compound 4i, 10-(8-Aza-bicyclo[3.2.1]oct-3-yl)-3-bromo-10H-phenothiazine]: the Ki at delta opioid receptor amounted to 881 nM; on mu opioid receptor, 6610 nM.

In the case of `c1cncc(-c2ccc3c(c2)Sc2ccccc2N3C2C[C@H]3CC[C@@H](C2)N3Cc2ccoc2)c1` (mixture of isomers) [Compound 6i, 10-(8-Furan-3-ylmethyl-8-aza-bicyclo[3.2.1]oct-3-yl)-3-pyridin-3-yl-10H-phenothiazine], the values for the Ki at delta opioid receptor and on mu opioid receptor were 282 nM and 1060 nM, respectively.

For the compound `CC(=O)Nc1ccccc1-c1ccc2c(c1)Sc1ccccc1N2C1C[C@H]2CC[C@@H](C1)N2Cc1ccoc1` (mixture of isomers) [Compound 7i, N-{2-[10-(8-Furan-3-ylmethyl-8-aza-bicyclo[3.2.1]oct-3-yl)-10H-phenothiazin-3-yl]-phenyl}-acetamide], the Ki at delta opioid receptor was determined as 123 nM; on mu opioid receptor it was 554 nM.

For `CC(C)=CCN1[C@@H]2CC[C@H]1CC(N1c3ccccc3Sc3cc(-c4cccnc4)ccc31)C2` (mixture of isomers) [Compound 8i, 10-[8-(3-Methyl-but-2-enyl)-8-aza-bicyclo[3.2.1]oct-3-yl]-3-pyridin-3-yl-10H-phenothiazine], the Ki on delta opioid receptor worked out at 444 nM; at mu opioid receptor, 889 nM.

For the compound `c1ccc(CN2[C@@H]3CC[C@H]2CC(N2c4ccccc4Sc4cc(-c5cccnc5)ccc42)C3)nc1` (mixture of isomers) [Compound 9i, 3-Pyridin-3-yl-10-(8-pyridin-2-ylmethyl-8-aza-bicyclo[3.2.1]oct-3-yl)-10H-phenothiazine], the inhibition constant Ki on delta opioid receptor worked out at 649 nM; on mu opioid receptor, 538 nM.

For the compound `CC(C)=CCN1[C@@H]2CC[C@H]1CC(N1c3ccccc3Sc3cc(-c4ccncc4)ccc31)C2` (mixture of isomers) [Compound 10i, 10-[8-(3-Methyl-but-2-enyl)-8-aza-bicyclo[3.2.1]oct-3-yl]-3-pyridin-4-yl-10H-phenothiazine], the values for the Ki on delta opioid receptor and at mu opioid receptor were 949 nM and 317 nM, respectively.

For the compound `c1csc(CN2[C@@H]3CC[C@H]2CC(N2c4ccccc4Sc4cc(-c5ccncc5)ccc42)C3)c1` (mixture of isomers) [Compound 12i, 3-Pyridin-4-yl-10-(8-thiophen-2-ylmethyl-8-aza-bicyclo[3.2.1]oct-3-yl)-10H-phenothiazine], the Ki at delta opioid receptor is 491 nM; on mu opioid receptor it was 1450 nM.

With `C=CCN1[C@@H]2CC[C@H]1CC(N1c3ccccc3Sc3cc(-c4ccccc4NC(C)=O)ccc31)C2` (mixture of isomers) [Compound 13i, N-{2-[10-(8-Allyl-8-aza-bicyclo[3.2.1]oct-3-yl)-10H-phenothiazin-3-yl]-phenyl}-acetamide], the inhibition constant (Ki) was found to be 552 nM at delta opioid receptor and 3740 nM on mu opioid receptor.

Take `CC(=O)Nc1ccccc1-c1ccc2c(c1)Sc1ccccc1N2C1C[C@H]2CC[C@@H](C1)N2CCc1ccccc1` (mixture of isomers) [Compound 14i, N-{2-[10-(8-Phenethyl-8-aza-bicyclo[3.2.1]oct-3-yl)-10H-phenothiazin-3-yl]-phenyl}-acetamide]: the results for the inhibitory constant (Ki) on delta opioid receptor and at mu opioid receptor were 1600 nM and 599 nM, respectively.

For the compound `c1ccc2c(c1)Oc1cc(-c3ccncc3)ccc1N2[C@H]1C[C@H]2CC[C@@H](C1)N2` [Compound 2k, Endo-10-(8-Aza-bicyclo[3.2.1]oct-3-yl)-3-pyridin-4-yl-10H-phenoxazine], on delta opioid receptor, the Ki was 696 nM. That is a sub-micromolar value.

`c1ccc2c(c1)Oc1cc(-c3ccncc3)ccc1N2[C@@H]1C[C@H]2CC[C@@H](C1)N2` [Compound 2m, Exo-10-(8-Aza-bicyclo[3.2.1]oct-3-yl)-3-pyridin-4-yl-10H-phenoxazine]: the Ki on delta opioid receptor was 634 nM. The Ki values of the last two compounds are within 1.5-fold of each other.

Compound `c1ccc(CCN2[C@@H]3CC[C@H]2C[C@@H](N2c4ccccc4Oc4cc(-c5ccncc5)ccc42)C3)cc1` [Compound 3k, Endo-10-(8-Phenethyl-8-aza-bicyclo[3.2.1]oct-3-yl)-3-pyridin-4-yl-10H-phenoxazine] displayed a Ki at delta opioid receptor of 3390 nM. Compared with the last compound, the Ki is about 5.3-fold higher.

For `c1cncc(-c2ccc3c(c2)Oc2ccccc2N3[C@@H]2C[C@H]3CC[C@@H](C2)N3)c1` [Compound 3l], at delta opioid receptor, affinity was put at a Ki of 729 nM.

On to `c1ccc(CCN2[C@@H]3CC[C@H]2C[C@H](N2c4ccccc4Oc4cc(-c5ccncc5)ccc42)C3)cc1` [Compound 3m, Exo-10-(8-Phenethyl-8-aza-bicyclo[3.2.1]oct-3-yl)-3-pyridin-4-yl-10H-phenoxazine], for which, at delta opioid receptor, the inhibition constant Ki turned out to be 480 nM.

For `CCN(CC)C(=O)c1ccc2c(c1)Oc1ccccc1N2[C@@H]1C[C@H]2CC[C@@H](C1)N2CCc1ccccc1` [Compound 3u, Exo-10-(8-Phenethyl-8-aza-bicyclo[3.2.1]oct-3-yl)-10H-phenoxazine-3-carboxylic acid diethylamide], the affinity at delta opioid receptor corresponds to a Ki of 1360 nM.

The compound `CC(=O)Nc1ccccc1-c1ccc2c(c1)Oc1ccccc1N2[C@H]1C[C@H]2CC[C@@H](C1)N2CCc1ccccc1` [Compound 3x, Endo-N-{2-[10-(8-Phenethyl-8-aza-bicyclo[3.2.1]oct-3-yl)-10H-phenoxazin-3-yl]-phenyl}-acetamide] returned an inhibitory constant (Ki) on delta opioid receptor of 1590 nM.

On to `c1ccc(CN2[C@@H]3CC[C@H]2C[C@@H](N2c4ccccc4Oc4cc(-c5ccncc5)ccc42)C3)nc1` [Compound 4k, Endo-3-Pyridin-4-yl-10-(8-pyridin-2-ylmethyl-8-aza-bicyclo[3.2.1]oct-3-yl)-10H-phenoxazine], for which the affinity on delta opioid receptor, expressed as Ki, was 445 nM.

Regarding `c1ccc(CCN2[C@@H]3CC[C@H]2C[C@H](N2c4ccccc4Oc4cc(-c5cccnc5)ccc42)C3)cc1` [Compound 4l, Exo-10-(8-Phenethyl-8-aza-bicyclo[3.2.1]oct-3-yl)-3-pyridin-3-yl-10H-phenoxazine], the Ki at delta opioid receptor amounted to 425 nM.

Compound `c1ccc(CN2[C@@H]3CC[C@H]2C[C@H](N2c4ccccc4Oc4cc(-c5ccncc5)ccc42)C3)nc1` [Compound 4m, Exo-3-Pyridin-4-yl-10-(8-pyridin-2-ylmethyl-8-aza-bicyclo[3.2.1]oct-3-yl)-10H-phenoxazine] displayed a Ki on delta opioid receptor of 869 nM.

On to `CC(=O)Nc1ccccc1-c1ccc2c(c1)Oc1ccccc1N2[C@H]1C[C@H]2CC[C@@H](C1)N2Cc1cccs1` [Compound 4x, Endo-N-{2-[10-(8-Thiophen-2-ylmethyl-8-aza-bicyclo[3.2.1]oct-3-yl)-10H-phenoxazin-3-yl]-phenyl}-acetamide], for which, on delta opioid receptor, the Ki was 161 nM.

With `c1cncc(-c2ccc3c(c2)Oc2ccccc2N3[C@H]2C[C@H]3CC[C@@H](C2)N3)c1` [Compound 5j, Endo-10-(8-Aza-bicyclo[3.2.1]oct-3-yl)-3-pyridin-3-yl-10H-phenoxazine], the inhibition constant Ki on delta opioid receptor was found to be 409 nM.

On delta opioid receptor, `c1ccc2c(c1)Oc1cc(-c3ccncc3)ccc1N2[C@H]1C[C@H]2CC[C@@H](C1)N2Cc1ccoc1` [Compound 5k, Endo-10-(8-Furan-3-ylmethyl-8-aza-bicyclo[3.2.1]oct-3-yl)-3-pyridin-4-yl-10H-phenoxazine] came in with a Ki of 247 nM.

`c1ccc(CN2[C@@H]3CC[C@H]2C[C@H](N2c4ccccc4Oc4cc(-c5cccnc5)ccc42)C3)nc1` [Compound 5l, Exo-3-Pyridin-3-yl-10-(8-pyridin-2-ylmethyl-8-aza-bicyclo[3.2.1]oct-3-yl)-10H-phenoxazine] registered a Ki on delta opioid receptor of 539 nM. This Ki lies about 2.2-fold higher than the previous one.

For the compound `c1ccc2c(c1)Oc1cc(-c3ccncc3)ccc1N2[C@@H]1C[C@H]2CC[C@@H](C1)N2Cc1ccoc1` [Compound 5m, Exo-10-(8-Furan-3-ylmethyl-8-aza-bicyclo[3.2.1]oct-3-yl)-3-pyridin-4-yl-10H-phenoxazine], on delta opioid receptor, the Ki was 1280 nM. Against the preceding compound, the Ki is about 2.4-fold higher.

With `c1ccc(CCN2[C@@H]3CC[C@H]2C[C@@H](N2c4ccccc4Oc4cc(-c5cccnc5)ccc42)C3)cc1` [Compound 6j, Endo-10-(8-Phenethyl-8-aza-bicyclo[3.2.1]oct-3-yl)-3-pyridin-3-yl-10H-phenoxazine], on delta opioid receptor, the affinity corresponds to a Ki of 3260 nM.

`c1csc(CN2[C@@H]3CC[C@H]2C[C@@H](N2c4ccccc4Oc4cc(-c5ccncc5)ccc42)C3)c1` [Compound 6k, Endo-3-Pyridin-4-yl-10-(8-thiophen-2-ylmethyl-8-aza-bicyclo[3.2.1]oct-3-yl)-10H-phenoxazine] gave a Ki at delta opioid receptor of 14200 nM.

Turning to `CCN(CC)C(=O)c1ccc2c(c1)Oc1ccccc1N2[C@H]1C[C@H]2CC[C@@H](C1)N2CCc1ccccc1` [Compound 6t, Endo-10-(8-Phenethyl-8-aza-bicyclo[3.2.1]oct-3-yl)-10H-phenoxazine-3-carboxylic acid diethylamide], the inhibition constant (Ki) at delta opioid receptor is 231 nM.

As to `c1ccc(CN2[C@@H]3CC[C@H]2C[C@@H](N2c4ccccc4Oc4cc(-c5cccnc5)ccc42)C3)nc1` [Compound 7j, Endo-3-Pyridin-3-yl-10-(8-pyridin-2-ylmethyl-8-aza-bicyclo[3.2.1]oct-3-yl)-10H-phenoxazine], the affinity at delta opioid receptor corresponds to a Ki of 104 nM.

Take `c1cncc(-c2ccc3c(c2)Oc2ccccc2N3[C@H]2C[C@H]3CC[C@@H](C2)N3Cc2cccs2)c1` [Compound 9j, Endo-3-Pyridin-3-yl-10-(8-thiophen-2-ylmethyl-8-aza-bicyclo[3.2.1]oct-3-yl)-10H-phenoxazine]: the affinity at delta opioid receptor, expressed as Ki, was 11900 nM.

As for `Oc1cccc2c1Oc1cc(-c3ccncc3)ccc1N2[C@H]1C[C@H]2CC[C@@H](C1)N2CCc1ccccc1` [Compound 10v, Endo-10-(8-Phenethyl-8-aza-bicyclo[3.2.1]oct-3-yl)-7-pyridin-4-yl-10H-phenoxazin-4-ol], the inhibition constant (Ki) on delta opioid receptor was above 10000 nM.

In turn, `COc1cccc2c1Oc1cc(-c3ccncc3)ccc1N2[C@H]1C[C@H]2CC[C@@H](C1)N2CCc1ccccc1` [Compound 13v, Endo-6-Methoxy-10-(8-phenethyl-8-aza-bicyclo[3.2.1]oct-3-yl)-3-pyridin-4-yl-10H-phenoxazine] registered an inhibition constant (Ki) on delta opioid receptor above 10000 nM.
